In US12516049B2, “Sulfonylurea ring substituted monocyclic β-lactam antibiotics” (priority 2019, dated 2026):
≈ marks a conversion by molar mass, not a printed value. Blank lines part the entries; values can stand above or below the compound they belong to.

Key:
Type in all cases: cell-based
E.coli 115101 = test: MIC, two-fold agar dilution, clinical isolate; conditions: Escherichia coli, 115101
Procedure: (§1) The minimum inhibitory concentration (MIC) of the compound and combination with β-lactamase (MBLs) inhibitors against clinically isolated carbapenem-resistant enterobacteriaceae was determined by the two-fold agar dilution method to determine the activity of the compound to be tested against strains producing MBLs. […] The mother liquor was diluted to the concentration to be tested by double dilution method, an inoculum liquid was prepared by direct bacterial suspension method, 1 mL of the prepared bacteria solution was withdrawn and putted into the inoculation tube, and a positioning needle and an inoculation needle were installed. A bacterial multi-point inoculator was started for inoculation. After the bacterial solution was absorbed by the agar, the plate was placed upside down in an incubator at 37° C. for 16-20 hours, and the results were observed. The average of three tests was taken.

K.p HX30 = test: MIC, two-fold agar dilution, clinical isolate
Procedure: as §1

E.coli 115105 = test: MIC, two-fold agar dilution, clinical isolate; conditions: Escherichia coli, single drug, average of three tests
Procedure: as §1

K.p HX37 = test: MIC, two-fold agar dilution, clinical isolate
Procedure: (§2) The minimum inhibitory concentration (MIC) of the compound and combination with β-lactamase (MBLs) inhibitors against clinically isolated carbapenem-resistant enterobacteriaceae was determined by the two-fold agar dilution method to determine the activity of the compound to be tested against strains producing MBLs. Antibiotics and enzyme inhibitors were weighed separately and dissolved in sterile ultrapure water or dimethyl sulfoxide to prepare mother liquor, MHA medium was prepared, pH was adjusted to 7.2-7.4, and it was sterilized at 121° C. for 15 minutes and placed in a 55° C. water bath for heat preservation. The mother liquor was diluted to the concentration to be tested by double dilution method, an inoculum liquid was prepared by direct bacterial suspension method, 1 mL of the prepared bacteria solution was withdrawn and putted into the inoculation tube, and a positioning needle and an inoculation needle were installed. A bacterial multi-point inoculator was started for inoculation. After the bacterial solution was absorbed by the agar, the plate was placed upside down in an incubator at 37° C. for 16-20 hours, and the results were observed. The average of three tests was taken.

K.p CRE16 = test: MIC, two-fold agar dilution, clinical isolate; conditions: single drug, average of three tests
Procedure: as §2

K.p 6777 = test: MIC, two-fold agar dilution, clinical isolate
Procedure: as §2

[1] = tested on: Morganella morganii C1274; test: MIC, two-fold agar dilution, clinical isolate; conditions: Morganella morganii C1274; single drug; average of three tests; read-out: MIC
Procedure: as §2

E.coli 020031 = test: MIC, two-fold agar dilution, clinical isolate; conditions: Escherichia coli, single drug, average of three tests
Procedure: as §2

E.coli 115103 = test: MIC, two-fold agar dilution, clinical isolate; conditions: Escherichia coli, 115103
Procedure: as §2

K.p C904 = test: MIC, two-fold agar dilution, clinical isolate
Procedure: as §2

E.coli CRE21 = test: MIC, two-fold agar dilution, clinical isolate; conditions: Escherichia coli, CRE21
Procedure: as §2

E.coli 020028 = test: MIC, two-fold agar dilution, clinical isolate; conditions: Escherichia coli, single drug, average of three tests
Procedure: as §2

E.coli CRE18 = test: MIC, two-fold agar dilution, clinical isolate; conditions: Escherichia coli, CRE18
Procedure: as §2

K.p BAA-2470 = test: MIC, two-fold agar dilution, clinical isolate
Procedure: as §2

K.p CRE12 = test: MIC, two-fold agar dilution, clinical isolate; conditions: single drug, average of three tests
Procedure: as §2

E.coli 020033 = test: MIC, two-fold agar dilution, clinical isolate; conditions: Escherichia coli, single drug, average of three tests
Procedure: as §2

K.p 11544 = test: MIC, two-fold agar dilution, clinical isolate
Procedure: as §2

K.p 13249 = test: MIC, two-fold agar dilution, clinical isolate
Procedure: as §2

E.coli BAA-2452 = test: MIC, two-fold agar dilution, clinical isolate; conditions: Escherichia coli, BAA2452; E.coli BAA-2452; single drug; average of three tests; read-out: MIC
Procedure: as §2

E.coli CRE28 = test: MIC, two-fold agar dilution, clinical isolate; conditions: Escherichia coli, CRE28
Procedure: as §2

K.p 090339 = test: MIC, two-fold agar dilution, clinical isolate; conditions: K.p 090339; single drug; average of three tests; read-out: MIC
Procedure: as §2

K.p HX77 = test: MIC, two-fold agar dilution, clinical isolate; conditions: single drug, average of three tests
Procedure: as §2

E.coli CRE23 = test: MIC, two-fold agar dilution, clinical isolate; conditions: Escherichia coli, CRE23
Procedure: as §2

K.p CRE11 = test: MIC, two-fold agar dilution, clinical isolate
Procedure: as §2

K.p 115004 = test: MIC, two-fold agar dilution, clinical isolate; conditions: K.p 115004; single drug; average of three tests; read-out: MIC
Procedure: as §2

E.coli C1569 = test: MIC, two-fold agar dilution, clinical isolate; conditions: Escherichia coli, single drug, average of three tests
Procedure: as §2

[2] = tested on: Klebsiella pneumonia ATCC BAA-1705 (KPC-2); test: MIC, micro-liquid dilution (CLSI); conditions: Klebsiella pneumoniae, ATCCBAA1705; K. pneumonia ATCC BAA-1705, Class A (KPC-2); 20-24 h, 37° C.
Procedure: (§3) Three strains of Klebsiella pneumonia, ATCC BAA-205 (TEM-1/SHV-1/SHV-12), ATCC BAA-1705 (KPC-2), ATCC BAA-2470 (NDM-1), Enterobacter cloacae ATCC BAA-1143 (AmpC), two strains of Escherichia coli ATCC BAA-2523 (OXA-48), ATCC 25922 were used to determine the minimum inhibitory concentration (MIC) of each of the compounds by micro-liquid dilution method according to the Institute of Clinical and Laboratory Standard (CLSI) requirements. […]. The plate was placed upside down at 37° C. and the MIC value was read after 20-24 h of incubation, and the lowest drug concentration that inhibited the growth of bacteria was set as MIC. Colony-Forming Units (CFU) refer to the total number of bacterial colonies per unit volume.

[3] = tested on: Klebsiella pneumonia ATCC BAA-205 (TEM-1/SHV-1/SHV-12); test: MIC, micro-liquid dilution (CLSI); conditions: Klebsiella pneumoniae, ATCCBAA205; K. pneumonia ATCC BAA-205, Class A (TEM-1/SHV-1/SHV-12); 20-24 h, 37° C.
Procedure: as §3

[4] = tested on: Klebsiella pneumonia ATCC BAA-2470 (NDM-1); test: MIC, micro-liquid dilution (CLSI); conditions: Klebsiella pneumoniae, ATCCBAA2470; K. pneumonia ATCC BAA-2470, Class B (NDM-1); 20-24 h, 37° C.
Procedure: as §3

[5] = tested on: Escherichia coli ATCC 25922; test: MIC, micro-liquid dilution (CLSI); conditions: ATCC25922, E. coli ATCC 25922, 20-24 h, 37° C.
Procedure: as §3

[6] = tested on: Enterobacter cloacae ATCC BAA-1143 (AmpC); test: MIC, micro-liquid dilution (CLSI); conditions: ATCCBAA1143, E. cloacae ATCC BAA-1143, Class C (AmpC), 20-24 h, 37° C.
Procedure: as §3

[7] = tested on: Escherichia coli ATCC BAA-2523 (OXA-48); test: MIC, micro-liquid dilution (CLSI); conditions: ATCCBAA2523, E. coli ATCC BAA-2523, Class D (OXA-48), 20-24 h, 37° C., read-out: MIC
Procedure: as §3

Compound: C[C@H]1[C@H](NC(=O)/C(=N\OC(C)(C)C(=O)O)c2csc(N)n2)C(=O)N1S(=O)(=O)O [Aztreonam]
MIC (E.coli 115101): > 128 µg/mL
MIC (K.p HX30): > 128 µg/mL
MIC (E.coli 115105): 16 µg/mL
MIC (K.p HX37): > 128 µg/mL
MIC (K.p CRE16): 64 µg/mL
MIC (K.p 6777): 128 µg/mL
MIC [1]: 4 µg/mL
MIC (E.coli 020031): 4 µg/mL
MIC (E.coli 115103): 128 µg/mL
MIC (K.p C904): > 128 µg/mL
MIC (E.coli CRE21): > 128 µg/mL
MIC (E.coli 020028): 16 µg/mL
MIC (E.coli CRE18): > 128 µg/mL
MIC (K.p BAA-2470): > 128 µg/mL
MIC (K.p CRE12): 4 µg/mL
MIC (E.coli 020033): 32 µg/mL
MIC (K.p 11544): > 128 µg/mL
MIC (K.p 13249): > 128 µg/mL
MIC (E.coli BAA-2452): 16 µg/mL
MIC (E.coli CRE28): > 128 µg/mL
MIC (K.p 090339): 64 µg/mL
MIC (K.p HX77): 16 µg/mL
MIC (E.coli CRE23): > 128 µg/mL
MIC (K.p CRE11): 128 µg/mL
MIC (K.p 115004): 64 µg/mL
MIC (E.coli C1569): 1 µg/mL

MIC [2]: 2 µg/mL (≈ 3.52 µM)
MIC [3]: 1 µg/mL (≈ 1.76 µM)
MIC [4]: 1 µg/mL (≈ 1.76 µM)
MIC [5]: 4 µg/mL (≈ 7.05 µM)
MIC [6]: 2 µg/mL (≈ 3.52 µM)
MIC [7]: 1 µg/mL (≈ 1.76 µM)
Compound: Nc1nc(/C(=N/OC2(C(=O)O)CC2)C(=O)N[C@@H]2C(=O)N(S(=O)(=O)O)[C@@H]2CN2CCCNS2(=O)=O)cs1 [Compound 2]

MIC [2]: 2 µg/mL (≈ 3.2 µM)
MIC [3]: 2 µg/mL (≈ 3.2 µM)
MIC [4]: 1 µg/mL (≈ 1.6 µM)
MIC [5]: 4 µg/mL (≈ 6.39 µM)
MIC [6]: 2 µg/mL (≈ 3.2 µM)
MIC [7]: 0.25 µg/mL (≈ 0.4 µM)
Compound: CC(=O)OC[C@@H]1CN(C[C@@H]2[C@H](NC(=O)/C(=N\OC3(C(=O)O)CC3)c3csc(N)n3)C(=O)N2S(=O)(=O)O)S(=O)(=O)N1 [Compound 3]
